Test system: Git1 hetero type (+/−) mice
Assay: Open field test in Git1 hetero type (+/−) ADHD model mice treated with SNAP5114
Type: in vivo
Settings: SNAP5114 I.P. 50 ug/kg for 7 days prior to the experiment, movement measured for 10 minutes
Protocol: Git1 gene-deficient hetero (+/−) mice were prepared as an animal model with attention deficit/hyperactivity disorder (ADHD). Wild-type mice and GIT1 gene-deficient knock-out type (KO type) mice were crossed to obtain GIT1 gene-deficient hetero type. After making mating cages for among the obtained hetero type mice, genotyping was performed to isolate the hetero type mice. SNAP5114 was administered intraperitoneally (I.P.) at a concentration of 50 ug/kg for 7 days prior to the experiment. SNAP5114 was dissolved in 10% DMSO and then used by dissolving in 90% saline just before the experiment. Open field tests were performed to evaluate behavioral morphology and, in order to determine the characteristics of tonic GABA in the striatum, a representative brain region that controls hyperactivity, immunohistochemistry and electrophysiological measurements (patch clamp recording) were performed. Considering that changes in the amount of GABA associated with astrocytes in ADHD model mice are related to the transport protein that transports GABA into the astrocytes, behavioral experiments were conducted by treating the SNAP5114, an inhibitor of GABA transporter-3 (GAT-3). […] The mice were placed in the center of an open field test cage (30×30×30 cm), and its movement was measured for 10 minutes. The measured videos were analyzed for locomotor activity through ANYmaze.

COc1ccc(C(OCCN2CCC[C@H](C(=O)O)C2)(c2ccc(OC)cc2)c2ccc(OC)cc2)cc1 [SNAP5114, (S)-1-(2-(tris(4-methoxyphenyl)methoxy)ethyl)piperidine-3-carboxylic acid]
hyperactivity (distance of movement, locomotor activity) in open field test: hyperactivity was found to be ameliorated to the level of WT
